Results published in patent publication US12723024B2 (priority 2021, dated 2026).
≈ marks a conversion by molar mass, not a printed value. Where two headings read alike, the source gives them in different places.

Tests used:
[1] = Salt screening (slurry crystallization); format: physicochemical; design: key to Salt screening result: (+) shows that a crystalline salt was formed; (−) physical mixtures; details: for Polymorph obtained in salt screening: XRPD; for Salt screening result: slurry 50° C. then 25° C.
Protocol: About 45 mg was added to a suitable solvent and different equivalents of acids were added under stirring at 50° C. for about 2 hours and then at 25° C. for at least 32 hours. Ethanol, acetone, and ACN were used as screening solvents. When no precipitation was obtained or only a few solids were obtained, the solutions were placed at 5° C. for crystallization.
(§1) Obtained suspensions were taken out and centrifuged. Solids obtained was analysed by XRPD. Salts with high or medium crystallinity were further characterized (see Table 5).

[2] = Crystallinity by XRPD; format: physicochemical
Protocol: as §1
(§2) According to the salt screening results (see Table 4), totally 19 potential salt hits were identified. All the potential salt hits were further investigated by Differential Scanning Calorimetry (DSC), Thermogravimetric analysis (TGA), H-NMR, Ion chromatography (IC), Karl Fischer titration (KF), and Polarized Light Microscopy (PLM) to confirm their identity and evaluate their physicochemical properties as shown in Table 5 below.

[3] = Thermogravimetric analysis (TGA) weight loss; format: physicochemical; details: salt screening sample, at the temperature given (80-200° C.)
Description: as §2

[4] = Hygroscopicity (water uptake) of salt hits; format: physicochemical; details: salt screening sample; grade in words
Description: as §2

[5] = format: physicochemical; details: for Initial chemical purity (%): before storage; for chemical purity (%): solid state; for chemical purity (%) / Bulk stability: 1 week; for Bulk stability: stressed conditions: 25° C./92% RH
[6] = Dynamic vapor sorption (DVS) test at 25° C.; format: physicochemical; details: for Desorp. (%) / Sorp. (%) / Water absorbed from 40% RH to 95% RH / 1st Desorp. (%) / 2nd Sorp. (%) / 1st Sorp. (%) / 2nd Desorp. (%): 25° C.; for Desorp. (%) / Sorp. (%): cycle 40-0-95-0-40% RH; for Hygroscopicity / XRPD after DVS test: DVS at 25° C.; for Hygroscopicity: grade in words; for 1st Desorp. (%) / 2nd Sorp. (%) / 1st Sorp. (%) / 2nd Desorp. (%): cycle 40-95-0-95-40% RH
[7] = Thermogravimetric analysis (TGA) weight loss; format: physicochemical; details: large scale batch
[8] = format: physicochemical
Description: as §2

[9] = Solubility in pH buffers and bio-relevant media at 37° C.; format: physicochemical; details: thermodynamic from solid
[10] = Solubility in water at 25° C.; details: thermodynamic from solid
[11] = listed as hydrochloride salt (polymorph A)
[12] = at the temperature printed in the same cell (100-170° C.)
[13] = large scale batch, listed as free base (polymorph B)
[14] = aqueous buffer, pH 4.5 (50 mM) acetate buffer, tested up to 2 mg/mL
[15] = aqueous buffer, pH 6.8 (50 mM) phosphate buffer, tested up to 2 mg/mL
[16] = pH 1.2 HCl buffer (0.1N HCl), simulated gastric fluid, pH 1.2 (0.1N HCl), tested up to 2 mg/mL
[17] = simulated gastric fluid, SGF, pH 2.0, tested up to 2 mg/mL
[18] = FaSSIF-V1, pH 6.5, tested up to 2 mg/mL
[19] = FeSSIF-V1, pH 5.0, tested up to 2 mg/mL

COc1cc(C(F)(F)F)c(OC)cc1[C@@H]1CCCNC1.Cl [HCl salt of (S)-3-(2,5-dimethoxy-4-(trifluoromethyl)phenyl)piperidine]
Polymorph obtained in salt screening ([1]; ACN): Polymorph A
Salt screening result ([1]; ACN): +
Polymorph obtained in salt screening ([1]; Acetone): Polymorph A
Salt screening result ([1]; Acetone): +
Polymorph obtained in salt screening ([1]; EtOH): Polymorph A
Salt screening result ([1]; EtOH): +
Crystallinity ([2]; large scale batch): High
Crystallinity ([2]; large scale batch, listed as hydrochloride salt (polymorph A)): high crystallinity
Crystallinity ([2]; salt screening sample): High
Weight loss (%) [3]: 0.08%
Hygroscopicity [4]: None
Initial chemical purity (%) [5]: 99.8%
chemical purity (%) ([5]; 25° C./92% RH, open container): 99.8%
chemical purity (%) ([5]; 40° C./75% RH, open container): 99.8%
chemical purity (%) ([5]; 60° C., tight container): 99.8%
Bulk stability ([5]; 40° C./75% RH, 60° C.): chemically and physically stable
Desorp. (%) ([6]; 0% RH): 0.01%
Sorp. (%) ([6]; 0% RH): 0.00%
Desorp. (%) ([6]; 10% RH): 0.01%
Sorp. (%) ([6]; 10% RH): 0.01%
Desorp. (%) ([6]; 20% RH): 0.012%
Sorp. (%) ([6]; 20% RH): 0.01%
Water absorbed from 40% RH to 95% RH [6]: about 0.17%
Desorp. (%) ([6]; 30% RH): 0.03%
Sorp. (%) ([6]; 30% RH): 0.01%
Desorp. (%) ([6]; 40% RH): 0.03%
Sorp. (%) ([6]; 40% RH): 0.01%
Desorp. (%) ([6]; 50% RH): 0.04%
Sorp. (%) ([6]; 50% RH): 0.01%
Desorp. (%) ([6]; 60% RH): 0.04%
Sorp. (%) ([6]; 60% RH): 0.02%
Desorp. (%) ([6]; 70% RH): 0.04%
Sorp. (%) ([6]; 70% RH): 0.03%
Desorp. (%) ([6]; 80% RH): 0.07%
Sorp. (%) ([6]; 80% RH): 0.05%
Desorp. (%) ([6]; 90% RH): 0.12%
Sorp. (%) ([6]; 90% RH): 0.12%
Desorp. (%) ([6]; 95% RH): 0.19%
Sorp. (%) ([6]; 95% RH): 0.19%
Hygroscopicity [6, 11]: non-hygroscopic
XRPD after DVS test [6, 11]: No form changes
Weight loss (%) at Temperature (° C.) ([7]; at the temperature (100-170° C.), listed as hydrochloride salt (polymorph A)): about 0.3%
Weight loss (%) at Temperature (° C.) [7, 12]: 0.3 at %

COc1cc(C(F)(F)F)c(OC)cc1[C@@H]1CCCNC1 [Free base (Polymorph B), (S)-3-(2,5-dimethoxy-4-(trifluoromethyl)phenyl)piperidine]
Salt screening result ([1]; ACN): Clear solution
Salt screening result ([1]; Acetone): Clear solution
Salt screening result ([1]; EtOH): Clear solution
Crystallinity ([2]; large scale batch): High
Crystallinity [2, 13]: high crystallinity
Crystallinity ([2]; salt screening sample): High
Weight loss (%) [3]: 8.0%
Water content (% w/w) ([8]; large scale batch): 8.0% w/w
Water content (% w/w) [8, 13]: about 8 % w/w
Water content (% w/w) ([8]; salt screening sample): 8% w/w
Initial chemical purity (%) [5]: 98.7%
chemical purity (%) ([5]; 25° C./92% RH, open container): 98.7%
chemical purity (%) ([5]; 40° C./75% RH, open container): 98.8%
chemical purity (%) ([5]; 60° C., tight container): 98.5%
Bulk stability ([5]; 40° C./75% RH, 60° C.): chemically stable in these conditions, but physically unstable at 60 °C
solubility at 2 h [9, 14]: > 2000 µg/mL
solubility at 24 h [9, 14]: > 2000 µg/mL
solubility at 2 h [9, 15]: 1540 µg/mL (≈ 5.32 mM)
solubility at 24 h [9, 15]: 1580 µg/mL (≈ 5.46 mM)
solubility at 2 h [9, 16]: > 2000 µg/mL
solubility at 24 h [9, 16]: > 2000 µg/mL
solubility at 2 h [9, 17]: > 2000 µg/mL
solubility at 24 h [9, 17]: > 2000 µg/mL
solubility at 2 h [9, 18]: > 2000 µg/mL
solubility at 24 h [9, 18]: > 2000 µg/mL
solubility at 2 h [9, 19]: > 2000 µg/mL
solubility at 24 h [9, 19]: > 2000 µg/mL
solubility at 2 h ([9]; Water, tested up to 2 mg/mL): 110 µg/mL (≈ 0.38 mM)
solubility at 24 h ([9]; Water, tested up to 2 mg/mL): 140 µg/mL (≈ 0.484 mM)
1st Desorp. (%) ([6]; 0% RH): 0.02%
2nd Sorp. (%) ([6]; 0% RH): 0.02%
1st Desorp. (%) ([6]; 10% RH): 0.20%
2nd Sorp. (%) ([6]; 10% RH): 0.002%
1st Desorp. (%) ([6]; 20% RH): 6.07%
2nd Sorp. (%) ([6]; 20% RH): 0.007%
1st Desorp. (%) ([6]; 30% RH): 6.29%
2nd Sorp. (%) ([6]; 30% RH): 0.02%
1st Desorp. (%) ([6]; 40% RH): 8.54%
1st Sorp. (%) ([6]; 40% RH): 8.34%
2nd Desorp. (%) ([6]; 40% RH): 8.23%
2nd Sorp. (%) ([6]; 40% RH): 0.02%
1st Desorp. (%) ([6]; 50% RH): 8.90%
1st Sorp. (%) ([6]; 50% RH): 8.83%
2nd Desorp. (%) ([6]; 50% RH): 8.76%
2nd Sorp. (%) ([6]; 50% RH): 0.04%
1st Desorp. (%) ([6]; 60% RH): 8.90%
1st Sorp. (%) ([6]; 60% RH): 8.90%
2nd Desorp. (%) ([6]; 60% RH): 8.79%
2nd Sorp. (%) ([6]; 60% RH): 0.06%
1st Desorp. (%) ([6]; 70% RH): 8.97%
1st Sorp. (%) ([6]; 70% RH): 8.96%
2nd Desorp. (%) ([6]; 70% RH): 8.87%
2nd Sorp. (%) ([6]; 70% RH): 0.12%
1st Desorp. (%) ([6]; 80% RH): 9.03%
1st Sorp. (%) ([6]; 80% RH): 9.02%
2nd Desorp. (%) ([6]; 80% RH): 8.95%
2nd Sorp. (%) ([6]; 80% RH): 3.80%
1st Desorp. (%) ([6]; 90% RH): 9.13%
1st Sorp. (%) ([6]; 90% RH): 9.11%
2nd Desorp. (%) ([6]; 90% RH): 9.06%
2nd Sorp. (%) ([6]; 90% RH): 9.00%
1st Desorp. (%) ([6]; 95% RH): 9.21%
1st Sorp. (%) ([6]; 95% RH): 9.21%
2nd Desorp. (%) ([6]; 95% RH): 9.14%
2nd Sorp. (%) ([6]; 95% RH): 9.14%
Hygroscopicity [6]: undergoes dehydration when relative humidity is below 40%
Weight loss (%) at Temperature (° C.) [7, 12]: 8.0 at %
Weight loss (%) at Temperature (° C.) ([7]; at the temperature printed in the same cell (100-170° C.), listed as free base (polymorph B)): about 8%
solubility at 2 h [10]: 110 µg/mL (≈ 0.38 mM)
solubility at 24 h [10]: 140 µg/mL (≈ 0.484 mM)

COc1cc(C(F)(F)F)c(OC)cc1[C@@H]1CCCNC1.O=C(O)C(O)C(O)C(=O)O [L-tartrate salt (Polymorph B, anhydrate), L-tartaric acid salt of (S)-3-(2,5-dimethoxy-4-(trifluoromethyl)phenyl)piperidine]
Polymorph obtained in salt screening ([1]; ACN): Polymorph B
Salt screening result ([1]; ACN): +
Polymorph obtained in salt screening ([1]; Acetone): Polymorph B
Salt screening result ([1]; Acetone): +
Polymorph obtained in salt screening ([1]; EtOH): Polymorph B
Salt screening result ([1]; EtOH): +
Crystallinity ([2]; large scale batch): High
Crystallinity ([2]; large scale batch, listed as L-tartrate salt Polymorph B): high crystallinity
Crystallinity ([2]; salt screening sample): High
Weight loss (%) [3]: 0.9%
Hygroscopicity [4]: None
Desorp. (%) ([6]; 0% RH): 0.01%
Sorp. (%) ([6]; 0% RH): 0.04%
Desorp. (%) ([6]; 10% RH): 0.03%
Sorp. (%) ([6]; 10% RH): 0.06%
Desorp. (%) ([6]; 20% RH): 0.07%
Sorp. (%) ([6]; 20% RH): 0.08%
Water absorbed from 40% RH to 95% RH [6]: about 1.5%
Desorp. (%) ([6]; 30% RH): 0.10%
Sorp. (%) ([6]; 30% RH): 0.10%
Desorp. (%) ([6]; 40% RH): 0.13%
Sorp. (%) ([6]; 40% RH): 0.12%
Desorp. (%) ([6]; 50% RH): 0.19%
Sorp. (%) ([6]; 50% RH): 0.13%
Desorp. (%) ([6]; 60% RH): 0.29%
Sorp. (%) ([6]; 60% RH): 0.15%
Desorp. (%) ([6]; 70% RH): 0.48%
Sorp. (%) ([6]; 70% RH): 0.19%
Desorp. (%) ([6]; 80% RH): 0.67%
Sorp. (%) ([6]; 80% RH): 0.66%
Desorp. (%) ([6]; 90% RH): 1.18%
Sorp. (%) ([6]; 90% RH): 1.00%
Desorp. (%) ([6]; 95% RH): 1.60%
Sorp. (%) ([6]; 95% RH): 1.60%
XRPD after DVS test [6]: No form changes
Hygroscopicity [6]: slightly hygroscopic
Weight loss (%) at Temperature (° C.) [7, 12]: 0.4 at %
Weight loss (%) at Temperature (° C.) ([7]; at the temperature printed in the same cell (100-170° C.), listed as L-tartrate salt Polymorph B): about 0.4%
